Read-outs that look alike come from different tables or passages of the source.
Tests used:
[1] = tested on: D. Magnia; assay: Acute aquatic toxicity, 48 hr LC50; assay type: in vivo, daphnia magna
Text: The present invention provides for deicing and anti-icing compositions that are environmentally advantaged.
As aforesaid, there are environmental issues associated with deicers and anti-icers, mostly as a result of the type of FPD used. Freezing point depressants are typically toxic to mammals. Ethylene glycol, in particular, is toxic to mammals (see rat LD50 data, Table 3). LC50, refers to Lethal Concentration, 50%, which is the concentration of a substance at which 50% of the population of test organisms die. Ethylene glycol has also been listed by the EPA as a hazardous air pollutant (HAP).
Another aspect of concern is the toxicity of FPDs on aquatic life and environment. […] (see Table 4, FPD aquatic toxicity data).

[2] = tested on: Rat; details: cited from earlier work
[3] = Surface tension; assay type: physicochemical
Text: Surfactants by their very nature can have toxic effects on aquatic organisms. They can coat surfaces or membranes required for the organism's oxygen exchange with the environment. Thus, it is advantageous for surfactants to degrade rapidly in the environment once their useful purpose has been served. Preferred surfactants for use in the present formulations have low aquatic toxicity (Table 4) and are biodegradable (see FIG. 2). Preferably they are soluble or dispersible in water, so that they form homogenous solutions or mixtures with the FPD/water mixtures in the fluid. Also it is preferred that the surfactant reduces the surface tension of the fluid below 35 dynes/cm (see surface tension, Table 6).

| Molecule | Acute tox. to D. Magnia, ppm (48 hr LC50) [1] | other results |
| --- | --- | --- |
| PEG-12 oleate | 13,000 ppm |  |
| CC(O)CCO (centres unmarked) [1,3 Butanediol, reference compound] |  | Rat Acute Oral Toxicity (LD50, g/kg) ([2]; oral, acute): 18.6 g/kg |
| OCCOCCOCCO [Triethylene glycol] | 66,000 ppm | Rat Acute Oral Toxicity (LD50, g/kg) ([2]; in vivo, po): 17 g/kg |
| O [Water] |  | Surface Tension (dynes/cm) [3]: 75 dynes/cm |
| CC(O)CO (centres unmarked) [Propylene glycol, reference compound] | 55,000 ppm |  |
| PEG-20 sorbitan oleate | 46,000 ppm |  |
| OCCO [Ethylene glycol, reference compound] | 77,000 ppm |  |

From US7270767B1, “Environmentally friendly de-icer and anti-icer compositions” (priority 1999, dated 2007)
